Data reported in paper PMC12582985, “Preparation and characterization of renal cell peptides from fetal rats for their antitumor activity” (FEBS Open Bio, 2025).

Experiments:
SGC‐7901 cells = assay: CCK‐8 cell viability assay, SGC‐7901; assay type: cell-based, human; conditions: CCK‐8, 48 h, triplicate; peptides 5–45 μg·mL^−1; 5‐FU positive control 0.1–5 mM; vs negative control
Text: (§1) Human breast cancer MCF‐7 (RRID:CVCL_0031), human lung cancer A549 (RRID:CVCL_0023), human colon cancer HCT‐116 (RRID:CVCL_0291), human cervical cancer Hela (RRID:CVCL_0030), human hepatoma HepG2 (RRID:CVCL_0027), human gastric cancer SGC‐7901 (RRID:CVCL_0520) and human non‐tumor mamma gland epithelial MCF‐10A (RRID:CVCL_0598) and transformed human liver epithelial‐2 (THLE‐2) (RRID:CVCL_3803) cells were obtained from Shanghai Donghuan Biotechnology (Shanghai, China). All cell lines had been authenticated in the past 3 years and again within 4 months after completion of the experiments. All cell lines had been tested for mycoplasma contamination frequently. Their identities were characterized by short tandem repeat analysis. All of these cell lines were cultured in high glucose Dulbecco's modified Eagle's medium supplemented by 10% fetal bovine serum, 100 units·mL^−1 penicillin and 100 μg·mL^−1 streptomycin (complete culture medium).
(§2) MCF‐7 cells (1 × 10^4 cells per well) were treated in triplicate with different doses of each type of RC extract in 96‐well plates for varying time periods. The negative control cells were treated with the diluent of physiological saline, whereas positive control cells were treated with different concentrations (0.1–5 mM) of 5‐fluorouracil (5‐FU) (Leica, Wetzlar, Germany). During the last hour of culture, each well of cells was treated with 10 μL of CCK‐8 solution. The absorbance of the supernatants of individual wells was measured at 450 nm using a microplate reader. Similarly, the effect of different synthesized RCPs (5–45 μg·mL^−1) on the viability of different types of human cancer cells was tested with CCK‐8 assays using the diluent of physiological saline containing the same concentration of dimethylsulfoxide as a negative control and the same concentrations of 5‐FU as the positive controls. Ten RCPs with a predicted strong bioactivity were synthesized by GenScript ([…]) and their purity, sequences and solubility are shown in Table 1. […] The formula used to calculate the cytotoxicity rate of each concentration of RCP was: Cytotoxicity rate (%) = (absorbance value of the control group − absorbance value of the experimental group)/absorbance value of the control group × 100%. In addition, MCF‐7 cells were treated with each type of RCP at 45 μg·mL^−1 for 12–72 h and the dynamic impact of RCP treatment on the viability of MCF‐7 cells was determined every 12 h using CCK‐8 assays.
(§3) Data are expressed as the mean ± SEM. The data distribution was analyzed by Shapiro–Wilk test. The IC50 values of each peptide for individual cell lines were determined using the PRISM, version 8 (GraphPad Software Inc.). Briefly, all dose–response data were converted into […], which were automatically analyzed by PRISM for non‐linear regression to determine and report the IC50 and its SD for each peptide in a specific cell line. The difference among groups was analyzed by analysis of variance and post‐hoc Tukey's tests and the comparison between groups was performed using Student's t‐test and PRISM, version 8 (GraphPad Software Inc.). P < 0.05 was considered statistically significant.

MCF‐7 cells = assay: CCK‐8 cell viability assay, MCF‐7; assay type: cell-based, human
Text: as §1, §2, §3

Hela cells = assay: CCK‐8 cell viability assay, Hela; assay type: cell-based, human; conditions: CCK‐8, 48 h, triplicate; peptides 5–45 μg·mL^−1; 5‐FU positive control 0.1–5 mM; vs negative control
Text: as §1, §2, §3

HepG2 cells = assay: CCK‐8 cell viability assay, HepG2; assay type: cell-based, human; conditions: CCK‐8, 48 h, triplicate; peptides 5–45 μg·mL^−1; 5‐FU positive control 0.1–5 mM; vs negative control
Text: as §1, §2, §3

A549 cells = assay: CCK‐8 cell viability assay, A549; assay type: cell-based, human; conditions: CCK‐8, 48 h, triplicate; peptides 5–45 μg·mL^−1; 5‐FU positive control 0.1–5 mM; vs negative control
Text: as §1, §2, §3

MCF‐10A cells = assay: CCK‐8 cell viability assay, non‐tumor MCF‐10A; assay type: cell-based, human; conditions: CCK‐8, 48 h, triplicate; peptides 5–45 μg·mL^−1; 5‐FU positive control 0.1–5 mM; vs negative control
Text: as §1, §2, §3

HCT‐116 cells = assay: CCK‐8 cell viability assay, HCT‐116; assay type: cell-based, human; conditions: CCK‐8, 48 h, triplicate; peptides 5–45 μg·mL^−1; 5‐FU positive control 0.1–5 mM; vs negative control
Text: as §1, §2, §3

[1] = Solubility of the synthesized peptides; assay type: physicochemical; conditions: for Solubility: solvent given for the synthesized peptide (GenScript)
[2] = test system: cancer cells (MCF‐7, A549, HCT‐116, Hela, HepG2, SGC‐7901) vs non‐tumor MCF‐10A and THLE‐2 cells; assay: CCK‐8 cytotoxicity, preference for cancer cells over non‐tumor cells; assay type: cell-based, human; design: cytotoxicity against non‐tumor MCF‐10A and THLE‐2 cells compared with tumor cell lines: dose or concentration left out as unconfirmed; conditions: for preference of cytotoxicity for cancer cells over non‐tumor cells: 5–45 μg·mL^−1, 48 h, CCK‐8
Text: as §1, §2, §3

THLE‐2 cells = assay: CCK‐8 cell viability assay, non‐tumor THLE‐2; assay type: cell-based, human; conditions: CCK‐8, 48 h, triplicate; peptides 5–45 μg·mL^−1; 5‐FU positive control 0.1–5 mM; vs negative control
Text: as §1, §2, §3

[3] = CCK‐8, 48 h, triplicate, peptides 5–45 μg·mL^−1, 5‐FU positive control 0.1–5 mM, vs negative control

Molecule | viability of SGC‐7901 cells (SGC‐7901 cells) | viability of MCF‐7 cells (MCF‐7 cells; [3]) | viability of Hela cells (Hela cells) | viability of HepG2 cells (HepG2 cells) | viability of A549 cells (A549 cells) | viability of non‐tumor MCF‐10A cells (MCF‐10A cells) | viability of HCT‐116 cells (HCT‐116 cells) | Solubility [1] | preference of cytotoxicity for cancer cells over non‐tumor cells [2] | viability of non‐tumor THLE‐2 cells (THLE‐2 cells) | dynamic cytotoxicity against MCF‐7 cells (MCF‐7 cells; 45 μg·mL^−1, 12–72 h, CCK‐8 every 12 h, maintained at highest levels to 72 h) | aqueous solubility ([1]; in words) | cytotoxicity against non‐tumor MCF‐10A and THLE‐2 cells compared with tumor cell lines ([2]; 48 h, P < 0.05 or P < 0.01) | viability of MCF‐7 cells (MCF‐7 cells; RC extract experiment, positive control 0.1–5 mM, dose‐dependent, P < 0.01)
PAPPKPEPK [RCP‐9, synthesized 9‐mer renal cell peptide from Non‐histone chromosomal protein HMG‐17, trypsin digested] | decreased the viability | decreased the viability | decreased the viability | decreased the viability | decreased the viability | decreased the viability | decreased the viability | Water, pH 7.0 | did not preferably decrease the viability of tumor cells | decreased the viability |  |  |  | 
RFFESFGDL [RCP‐7, synthesized 9‐mer renal cell peptide from GLOBIN domain‐containing protein, protamex‐digested] | decreased the viability | decreased the viability | decreased the viability | decreased the viability | decreased the viability | decreased the viability | decreased the viability | 0.1% Dimethylsulfoxide | did not preferably decrease the viability of tumor cells | decreased the viability |  |  |  | 
EWLKVPCLSTRLINPENMGF [RCP‐6, synthesized 20‐mer renal cell peptide from Sacsin molecular chaperone, trypsin digested] | significantly decreased the viability | significantly decreased the viability | significantly decreased the viability | significantly decreased the viability | significantly decreased the viability | only treatment with the highest doses of them slightly reduced the viability | significantly decreased the viability | 0.1% Dimethylsulfoxide | potent cytotoxicity preferably against cancer cells | only treatment with the highest doses of them slightly reduced the viability | increased with time from 12 h post treatment to 48 h | low aqueous solubility | statistically lower than tumor cell lines | 
FAGDDAPR [RCP‐4, synthesized 8‐mer renal cell peptide from Actin, cytoplasmic 2, trypsin digested] | decreased the viability | decreased the viability | decreased the viability | decreased the viability | decreased the viability | decreased the viability | decreased the viability | Water, pH 7.0 | did not preferably decrease the viability of tumor cells | decreased the viability |  |  |  | 
IYAPDSPRAF [RCP‐10, synthesized 10‐mer renal cell peptide from Vanin 1, protamex‐digested] | decreased the viability | decreased the viability | decreased the viability | decreased the viability | decreased the viability | decreased the viability | decreased the viability | Water, pH 7.0 | did not preferably decrease the viability of tumor cells | decreased the viability |  |  |  | 
SSGCPPLPPRRGAPAGWLSH [RCP‐2, synthesized 20‐mer renal cell peptide from Brain‐derived neurotrophic factor, trypsin digested] | decreased the viability | decreased the viability | decreased the viability | decreased the viability | decreased the viability | decreased the viability | decreased the viability | Water, pH 7.0 | did not preferably decrease the viability of tumor cells | decreased the viability |  |  |  | 
O=c1[nH]cc(F)c(=O)[nH]1 [5‐FU, 5‐fluorouracil, reference compound] | significantly decreased the viability | significantly decreased the viability | significantly decreased the viability | significantly decreased the viability | significantly decreased the viability | significantly decreased the viability | significantly decreased the viability |  |  | significantly decreased the viability |  |  |  | significantly reduced the viability
